Test results taken from patent US6891069B1, “Synthesis of 4-substituted phthalaldehyde” (Ethicon, Inc., priority 2004, dated 2005).
Counter-ions that a name gives are not always drawn. Like-named read-outs stand apart in the source and are kept apart here.

Columns and labels:
[1] = tested on: Mycobacterium terrae bacteria; test: bacterial suspension test; type: cell-based; settings: for Germicidal Efficacy: summary Table 14
Method: In Examples 1 to 3, which follow, several germicidal solutions containing either the 4-fluoro-, 4-chloro-, or 4-bromo-phthalaldehyde compound were tested to determine their effectiveness in killing at least 1×10^6/mL of Mycobacterium terrae bacteria using a bacterial suspension test. The bacterial suspension test that was employed is described in Section VII.
The solutions were prepared by adding the appropriate amounts of the germicidal compounds to an aqueous solution. Unless otherwise mentioned all concentrations reported herein are expressed in (w/v)%. The pH of the solution was not adjusted. The tests were conducted at a temperature of about 20° C. (room temperature). The results are presented in terms of log reductions/mL. It is understood that these examples, as well as the other examples herein, are to be construed as merely illustrative, and not limiting.
In this test method, 9 mL of the germicide to be tested is placed in a tube, put into a water bath and allowed to come to the desired temperature. One mL of the test organism, including at least 7 logs/mL of Mycobacterium terrae bacteria, is added to the 9 mL of the germicide to be tested. […] It will be appreciated by those skilled in the art that other concentrations may be utilized by proper dilution and accounting.
At appropriate time intervals, 1 mL aliquots of the germicide-cell suspension were removed and added directly into 9 mL of a 1% glycine solution (neutralizer) and mixed thoroughly to neutralize the germicide in the transferred suspension. The glycine solution was prepared from solid glycine, which is available from VWR Scientific Products, among others. The above-identified 10 mL neutralized solution was then poured through a membrane filter having an average pore size of 0.45 micrometers. The filter was then rinsed twice with at least 150 mL of the 1% glycine solution per rinse. The filter was then placed on an agar plate and incubated for twenty-one days at 37° C. In the above procedure, if dilution was needed, then the 1 mL germicidal-cell suspension was diluted in 99 mL of a phosphate buffer before addition to the 9 mL of the 1% glycine solution. The phosphate buffer was DiLu-LoK™ Butterfields Phosphate Buffer, available from Hardy Diagnostics, of Santa Maria, Calif.
The surviving colonies are then counted. The data is plotted as S/So vs. time. So is the initial count of the bacteria in the above 10 mL solution which is at least 10^6 bacteria/mL, and S is the surviving bacteria from the above filter on the agar plate. The results of the experiments were presented in terms of log reductions. Log reduction is the difference between log(So) and log(S). As one example, if log(So)=6.2, and if there were 100 survivors, then the log(S)=2, and the log reduction was reported as 4.2.

solubility in water = settings: for Concentration, Saturated: saturated aqueous germicidal solution, pH not adjusted

With 4-pyridinyl-propanedial the “Log Reductions/mL” value ([1]; Saturated (˜2.3% w/v), 5 min, 20° C.) was 4.0 log reductions/mL and the “Concentration, Saturated” value (solubility in water) was “(˜2.3%) w/v %”.

In the case of `O=CC(c1ccccc1)C(O)S(=O)(=O)[O-].[Na+]` (stereo not shown) [1-hydroxy-3-oxo-2-phenyl-propane-1-sulfonic acid, sodium salt], the “Log Reductions/mL” value ([1]; 0.6%, 20° C., 60 min, sodium salt) is reported as “Total Kill”, the “Log Reductions/mL” value ([1]; 2.5%, 20° C., 10 min, sodium salt) is reported as “Total Kill” and the “Log Reductions/mL” value ([1]; 2.5%, 20° C., 30 min) is reported as “Total Kill”. For the same compound, the “Log Reductions/mL” value ([1]; 9.4%, 20° C., 30 min) was “Total Kill”, the log reduction at 0.6 % ([1]; Mycolicibacter terrae, 0.25 h, 0.6%, 20° C., 15 min, read-out: Log Reductions/mL) was 2.4 and the log reduction at 0.6 % ([1]; Mycolicibacter terrae, 0.5 h, 0.6%, 20° C., 30 min, read-out: Log Reductions/mL) was 3.5.

`O=CC(c1nc2ccccc2o1)C(O)S(=O)(=O)O` (stereo not shown) [2-benzooxazol-2-yl-1-hydroxy-3-oxo-propane-1-sulfonic acid, sodium salt] showed a log reduction at 11.1 % ([1]; Mycolicibacter terrae, 1 h, 11.1%, 20° C., 60 min, read-out: Log Reductions/mL) of 5.

In the case of `O=CC(C=O)c1cccc(C(=O)O)c1[N+](=O)[O-]` [3-(1-formyl-2-oxoethyl)-2-nitro-benzoic acid], the “Concentration, Saturated” value (solubility in water) is reported as “(˜2.1%) w/v %”.

In the case of `O=Cc1ccc(Br)cc1C=O` [4-bromo-phthalaldehyde], the “Log Reductions/mL” value ([1]; 0.1%, 20° C., 30 minutes) is reported as “Total Kill” and the log reduction at 0.1 % ([1]; Mycolicibacter terrae, 10 min, 0.1%, 20° C., 10 minutes, read-out: Log Reductions/mL) is reported as 5.6.

With `O=Cc1ccc(Cl)cc1C=O` [4-chloro-phthalaldehyde] the “Log Reductions/mL” value ([1]; 2.7 w/v % in 20% isopropanol, 20° C., 5 min) was “Total Kill” and the log reduction at 0.2 % ([1]; Mycolicibacter terrae, 5 min, 0.2 w/v %, 20° C., 5 min, read-out: Log Reductions/mL) was 5.9.

For `O=Cc1ccc(F)cc1C=O` [4-fluoro-phthalaldehyde], the “Log Reductions/mL” value ([1]; 0.25%, 20° C., 60 minutes) was “Total Kill” and the log reduction at 0.25 % ([1]; Mycolicibacter terrae, 0.5 h, 0.25%, 20° C., 30 minutes, read-out: Log Reductions/mL) was 5.6.

With `O=Cc1ccccc1C(O)S(=O)(=O)[O-].[Na+]` (stereo not shown) [(2-formyl-phenyl)-hydroxy-methane sulfonic acid, sodium salt] the “Log Reductions/mL” value ([1]; 9.1%, 20° C., 5 min, listed as (2-formyl-phenyl)-hydroxy-methane sulfonate, sodium salt) was “confluent”, the “Log Reductions/mL” value ([1]; 9.1%, 20° C., 5 min, listed as H-SULF, sodium salt) was “Confluent” and the log reduction at 8.9 % ([1]; Mycolicibacter terrae, 0.5 h, 20° C., 30 min, read-out: Log Reductions/mL) was 2. For the same compound, the log reduction at 8.9 % ([1]; Mycolicibacter terrae, 1 h, 20° C., 60 min, read-out: Log Reductions/mL) was 3.5 and the log reduction at 8.9 % ([1]; Mycolicibacter terrae, 2 h, 20° C., 120 min, read-out: Log Reductions/mL) was 5.7.

In the case of `O=Cc1cccc(C=O)c1` [IPA, isophthalaldehyde, reference compound], the “Log Reductions/mL” value ([1]; 0.3%, dissolved in 20% isopropanol, 20° C., 5 min (Table 11)) is reported as “Confluent”, the “Log Reductions/mL” value ([1]; 0.3%, dissolved in 20% isopropanol, 20° C., 5 min (Table 15)) is reported as “Confluent” and the “Germicidal Efficacy” value [1] is reported as “Poor”.

In the case of `O=Cc1ccccc1C=O` [OPA, phthalaldehyde], the log reduction at 0.08 % ([1]; Mycolicibacter terrae, 0.5 h, 0.08%, 20° C., 30 min, read-out: Log Reductions/mL) is reported as 3.1, the log reduction at 0.1 % ([1]; Mycolicibacter terrae, 0.5 h, 0.10%, 20° C., 30 min, read-out: Log Reductions/mL) is reported as 3.4 and the log reduction at 0.14 % ([1]; Mycolicibacter terrae, 0.5 h, 0.14%, 20° C., 30 min, read-out: Log Reductions/mL) is reported as 5.8. For the same compound, the “Germicidal Efficacy” value [1] was “Good” and the solubility in water (solubility in water) was “about 5 % by weight”.

In the case of `O=Cc1ccc(C=O)cc1` [TPA, terephthaladehyde, reference compound], the “Log Reductions/mL” value ([1]; 0.2%, dissolved in 20% isopropanol, 20° C., 5 min) is reported as “Confluent” and the “Germicidal Efficacy” value [1] is reported as “Poor”.

For `O=CC(C=O)c1ccccc1` [phenyl-propanedial], the “Log Reductions/mL” value ([1]; 0.4%, 20° C., 60 min) was “Total Kill”, the “Log Reductions/mL” value ([1]; 0.7%, 20° C., 15 min) was “Total Kill” and the kill ([1]; 1% solution, 5 minutes, 20° C.) was “more than 4 logs”. The log reduction at 0.3 % ([1]; Mycolicibacter terrae, 1 h, 0.3%, 20° C., 60 min, read-out: Log Reductions/mL) was 3.7, the log reduction at 0.33 % ([1]; Mycolicibacter terrae, 1 h, 0.33%, 20° C., 60 min, read-out: Log Reductions/mL) was 3.7 and the solubility in water (solubility in water) was “about 1%”.
